Source: the Kinase Knowledgebase extract (Sharma et al. 2016)
Values joined by “and” are separate entries in the source; they are usually repeats but may differ in a detail not shown here. Equal values may be shown once.

Key:
[1] = molecular target: MAPK14 (human) (UniProt Q16539); test: Assessment of Phosphorylation of MAPK14 in HeLa Cell Line
[2] = molecular target: MAPK14 (human) (UniProt Q16539); test: Inhibition of MAPK14 Kinase Activity

Chain of MAPK14 (human) (Q16539 whole entry, looked up): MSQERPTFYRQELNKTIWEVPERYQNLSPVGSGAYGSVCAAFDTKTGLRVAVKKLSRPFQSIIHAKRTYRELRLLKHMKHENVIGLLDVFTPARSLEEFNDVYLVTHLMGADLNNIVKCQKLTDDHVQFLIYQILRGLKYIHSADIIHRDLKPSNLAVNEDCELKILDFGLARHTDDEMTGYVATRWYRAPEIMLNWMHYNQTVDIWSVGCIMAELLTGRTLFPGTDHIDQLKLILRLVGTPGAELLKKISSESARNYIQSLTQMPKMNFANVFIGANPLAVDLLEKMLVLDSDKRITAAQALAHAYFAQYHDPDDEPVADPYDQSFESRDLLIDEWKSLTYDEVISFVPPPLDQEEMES

Row | Compound | IC50 [1] | IC50 [2]
1 | CCOC[C@H](C)Nc1nc2ccc(-c3nc(C4(CO)CC4)[nH]c3-c3ccc(F)cc3F)nc2o1 | < 0.05 µM | < 0.05 µM
2 | COCC[C@H](C)Nc1nc2ccc(-c3nc(C4CC4)[nH]c3-c3ccc(F)cc3F)nc2o1 | < 0.05 µM | < 0.05 µM
3 | COCC[C@@H](C)Nc1nc2ccc(-c3nc(C(C)(C)CO)[nH]c3-c3ccc(F)cc3F)nc2o1 | < 0.05 µM | < 0.05 µM
4 | COCC[C@H](C)Nc1nc2ccc(-c3nc(C(C)(C)CO)[nH]c3-c3ccc(F)cc3F)nc2o1 | 0.0016 µM and < 0.05 µM | < 0.05 µM
5 | COCC[C@H](C)Nc1nc2ccc(-c3nc(C4(C)COC4)[nH]c3-c3ccc(F)cc3F)nc2o1 | < 0.05 µM | < 0.05 µM
